Toxic doses and inconclusive results are not listed. Cut-off read from the data, not from the text of the source: active = T/C of 150% or more; inactive = T/C below 125%.
System: L1210 leukemia ip in BDF1 mice, survival T/C
Assay: NCI In Vivo Anticancer Drug Screen. Data for tumor model L1210 Leukemia (intraperitoneal) in B6D2F1 (BDF1) mice
Conditions: endpoint: mean survival time, higher = longer survival
Outline: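 Read-out is survival time, reported as the treated-group measurement over the vehicle-control measurement.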

[1] = dose: 100.0 mg/kg/injection, schedule: Q01DX001 (ip), vehicle: Klucel (hydroxypropylcellulose) (HPC)
[2] = dose: 200.0 mg/kg/injection, schedule: Q01DX001 (ip), vehicle: Klucel (hydroxypropylcellulose) (HPC)
[3] = dose: 100.0 mg/kg/injection, schedule: Q01DX001 (ip), vehicle: carboxymethylcellulose (CMC)
[4] = dose: 200.0 mg/kg/injection, schedule: Q01DX001 (ip), vehicle: carboxymethylcellulose (CMC)
[5] = dose: 100.0 mg/kg/injection, schedule: Q01DX009 (ip), vehicle: Klucel (hydroxypropylcellulose) (HPC)
[6] = dose: 200.0 mg/kg/injection, schedule: Q01DX009 (ip), vehicle: Klucel (hydroxypropylcellulose) (HPC)
[7] = dose: 25.0 mg/kg/injection, schedule: Q01DX009 (ip), vehicle: saline
[8] = dose: 25.0 mg/kg/injection, schedule: Q04DX003 (ip), vehicle: saline
[9] = dose: 50.0 mg/kg/injection, schedule: Q01DX009 (ip), vehicle: saline
[10] = dose: 50.0 mg/kg/injection, schedule: Q04DX003 (ip), vehicle: saline
[11] = dose: 100.0 mg/kg/injection, schedule: Q01DX009 (ip), vehicle: saline
[12] = dose: 100.0 mg/kg/injection, schedule: Q04DX003 (ip), vehicle: saline
[13] = dose: 100.0 mg/kg/injection, schedule: Q04DX002 (ip), vehicle: Klucel (hydroxypropylcellulose) (HPC)
[14] = dose: 100.0 mg/kg/injection, schedule: Q04DX003 (ip), vehicle: Klucel (hydroxypropylcellulose) (HPC)
[15] = dose: 200.0 mg/kg/injection, schedule: Q04DX002 (ip), vehicle: Klucel (hydroxypropylcellulose) (HPC)
[16] = dose: 200.0 mg/kg/injection, schedule: Q04DX003 (ip), vehicle: Klucel (hydroxypropylcellulose) (HPC)
[17] = dose: 400.0 mg/kg/injection, schedule: Q04DX002 (ip), vehicle: Klucel (hydroxypropylcellulose) (HPC)
[18] = dose: 400.0 mg/kg/injection, schedule: Q04DX003 (ip), vehicle: Klucel (hydroxypropylcellulose) (HPC)
[19] = dose: 75.0 mg/kg/injection, schedule: Q04DX003 (ip), vehicle: saline
[20] = dose: 150.0 mg/kg/injection, schedule: Q04DX003 (ip), vehicle: saline
[21] = dose: 300.0 mg/kg/injection, schedule: Q04DX003 (ip), vehicle: saline
[22] = dose: 200.0 mg/kg/injection, schedule: Q04DX003 (ip), vehicle: saline
[23] = dose: 400.0 mg/kg/injection, schedule: Q04DX003 (ip), vehicle: saline

Measured: T/C

Nc1cncc2ncc(-c3ccc(Cl)cc3)nc12
inactive: dose: 50.0 mg/kg/injection, schedule: Q01DX001 (ip), vehicle: other 105 % of control | dose: 100.0 mg/kg/injection, schedule: Q01DX001 (ip), vehicle: other 100 % of control | dose: 200.0 mg/kg/injection, schedule: Q01DX001 (ip), vehicle: other 94 % of control | dose: 400.0 mg/kg/injection, schedule: Q01DX001 (ip), vehicle: other 96 % of control

CC(C)N1CSC(=S)N(C(C)C)C1
inactive: dose: 100.0 mg/kg/injection, schedule: Q04DX002 (ip), vehicle: other 89 % of control | dose: 200.0 mg/kg/injection, schedule: Q04DX002 (ip), vehicle: other 100 % of control | dose: 400.0 mg/kg/injection, schedule: Q04DX002 (ip), vehicle: other 107 % of control

CN(C)c1ccc2nc(C(=O)O)c(=O)n(C)c2c1
inactive: [1] 101 % of control | [2] 97 % of control

CC1C2CC3OC(=O)C1C3C2 (stereo not given)
inactive: dose: 50.0 mg/kg/injection, schedule: Q01DX001 (ip), vehicle: carboxymethylcellulose (CMC) 104 % of control | [3] 102 % of control | [4] 87 % of control

O=C(c1ccccc1)c1cccc(Cl)c1
inactive: dose: 50.0 mg/kg/injection, schedule: Q01DX009 (ip), vehicle: Klucel (hydroxypropylcellulose) (HPC) 105 % of control | dose: 100.0 mg/kg/injection, schedule: Q01DX001 (ip), vehicle: saline 98 % of control | [5] 101 % of control | dose: 200.0 mg/kg/injection, schedule: Q01DX001 (ip), vehicle: saline 96 % of control | [6] 100 % of control | dose: 400.0 mg/kg/injection, schedule: Q01DX001 (ip), vehicle: saline 93 % of control

N#CCc1ccccc1C(=O)O
inactive: dose: 100.0 mg/kg/injection, schedule: Q01DX009 (ip), vehicle: gum acacia 105 % of control | dose: 100.0 mg/kg/injection, schedule: Q04DX003 (ip), vehicle: gum acacia 96 % of control | dose: 200.0 mg/kg/injection, schedule: Q01DX009 (ip), vehicle: gum acacia 94 % of control | dose: 200.0 mg/kg/injection, schedule: Q04DX003 (ip), vehicle: gum acacia 91 % of control | dose: 400.0 mg/kg/injection, schedule: Q01DX009 (ip), vehicle: gum acacia 88 % of control | dose: 400.0 mg/kg/injection, schedule: Q04DX003 (ip), vehicle: gum acacia 97 % of control

C/C=C/c1ccc2oc(-c3ccc(OC4OC(C)C(O)C(O)C4O)cc3)c(C)c2c1 (stereo not given)
inactive: [1] 93 % of control | [2] 90 % of control | dose: 400.0 mg/kg/injection, schedule: Q01DX001 (ip), vehicle: Klucel (hydroxypropylcellulose) (HPC) 96 % of control

NNC(=O)NO
inactive: dose: 33.0 mg/kg/injection, schedule: Q01DX009 (ip), vehicle: saline 114 % of control | dose: 75.0 mg/kg/injection, schedule: Q01DX001 (ip), vehicle: saline 101 % of control | dose: 150.0 mg/kg/injection, schedule: Q01DX001 (ip), vehicle: saline 103 % of control

NC(CSC1c2ccccc2-c2ccccc21)C(=O)O (stereo not given)
inactive: dose: 75.0 mg/kg/injection, schedule: Q01DX001 (ip), vehicle: carboxymethylcellulose (CMC) 96 % of control | dose: 150.0 mg/kg/injection, schedule: Q01DX001 (ip), vehicle: carboxymethylcellulose (CMC) 98 % of control | dose: 300.0 mg/kg/injection, schedule: Q01DX001 (ip), vehicle: carboxymethylcellulose (CMC) 101 % of control

O=C1Nc2c(Cl)cccc2C1=O
inactive: [7] 92 % of control | [8] 98 % of control | [9] 94 % of control | [10] 98 % of control | [11] 92 % of control | [12] 96 % of control

c1ccc(C2OC2c2ccccc2)cc1 (stereo not given)
inactive: [5] 98 % of control | [13] 107 % of control | [14] 110 % of control | [6] 102 % of control | [15] 110 % of control | [16] 100 % of control | dose: 400.0 mg/kg/injection, schedule: Q01DX009 (ip), vehicle: Klucel (hydroxypropylcellulose) (HPC) 104 % of control | [17] 93 % of control | [18] 109 % of control

CC(C)(CO)N=Cc1ccccc1O.CC(C)(CO)N=Cc1ccccc1O.[Co]
inactive: dose: 12.5 mg/kg/injection, schedule: Q01DX001 (ip), vehicle: saline 97 % of control | dose: 25.0 mg/kg/injection, schedule: Q01DX001 (ip), vehicle: saline 97 % of control | dose: 50.0 mg/kg/injection, schedule: Q01DX001 (ip), vehicle: saline 92 % of control

C1=C(c2ccccc2)N(C2CC2)C(c2ccccc2)=CN1Cc1ccccc1
inactive: [13] 95 % of control | [15] 118 % of control | [17] 103 % of control

CCCCCCCCCCCCCC[N+](C)(C)CCCCCCCCCCCCCC
inactive: dose: 12.5 mg/kg/injection, schedule: Q01DX009 (ip), vehicle: saline 108 % of control | dose: 12.5 mg/kg/injection, schedule: Q04DX003 (ip), vehicle: saline 104 % of control | [7] 106 % of control | [8] 105 % of control | [9] 90 % of control | [10] 102 % of control

CC1CC(=O)Nc2ccccc2N1 (stereo not given)
inactive: [14] 97 % of control | [16] 100 % of control | [18] 103 % of control

CC(=O)OC1CCC2(C)C(=CCC3C2CCC2(C)C3CC3C2C(c2ccccc2)=NN3c2ccccc2)C1 (stereo not given)
inactive: dose: 6.0 mg/kg/injection, schedule: Q04DX002 (ip), vehicle: Klucel (hydroxypropylcellulose) (HPC) 93 % of control | dose: 12.5 mg/kg/injection, schedule: Q04DX002 (ip), vehicle: Klucel (hydroxypropylcellulose) (HPC) 104 % of control | dose: 25.0 mg/kg/injection, schedule: Q04DX002 (ip), vehicle: Klucel (hydroxypropylcellulose) (HPC) 96 % of control | dose: 50.0 mg/kg/injection, schedule: Q04DX002 (ip), vehicle: Klucel (hydroxypropylcellulose) (HPC) 96 % of control

COC1OCC(NC(C)=O)C(OC(C)=O)C1OC(C)=O (stereo not given)
inactive: dose: 50.0 mg/kg/injection, schedule: Q01DX001 (sc), vehicle: saline 104 % of control | dose: 100.0 mg/kg/injection, schedule: Q01DX001 (sc), vehicle: saline 101 % of control | dose: 200.0 mg/kg/injection, schedule: Q01DX001 (sc), vehicle: saline 111 % of control | dose: 400.0 mg/kg/injection, schedule: Q01DX001 (sc), vehicle: saline 95 % of control

CCOC(=O)CCN(Cc1ccccc1)C(=S)Nc1ccccc1
inactive: dose: 25.0 mg/kg/injection, schedule: Q01DX Z (ip), vehicle: methylcellulose (MC) 98 % of control

S=C(Nc1ccc(Cl)c(Cl)c1)SCc1ccccc1
inactive: [19] 101 % of control | [20] 104 % of control | [21] 101 % of control

CCOC(=O)CSC(=S)SCC(=O)OCC
inactive: [12] 104 % of control | [22] 105 % of control | [23] 107 % of control

O=C(Cn1ccc(=O)[nH]c1=O)c1ccco1
inactive: [12] 102 % of control | [22] 107 % of control | [23] 98 % of control

O=C(Nc1ccc(S(=O)(=O)Nc2ccc(N=Nc3ccc(S(=O)(=O)Nc4nccs4)cc3)cc2)cc1)C(SC1=NC=NC2=NC=NC21)SC1=NC=NC2=NC=NC21 (stereo not given)
inactive: [19] 100 % of control | [20] 96 % of control | [21] 98 % of control

CC(=O)NC(C)C1(O)CCCCC1 (stereo not given)
inactive: [11] 101 % of control | dose: 200.0 mg/kg/injection, schedule: Q01DX009 (ip), vehicle: saline 96 % of control | dose: 400.0 mg/kg/injection, schedule: Q01DX009 (ip), vehicle: saline 98 % of control

CS(=O)(=O)c1ccc2c(c1)-c1ccccc1C2=O
inactive: [3] 96 % of control | [4] 104 % of control | dose: 400.0 mg/kg/injection, schedule: Q01DX001 (ip), vehicle: carboxymethylcellulose (CMC) 98 % of control

Reference: PubChem BioAssay AID248 (DTP/NCI, 2004)
